Molecules are shown by their SMILES. Values after ≈ are worked out from the molar mass of the structure shown.

The test system of one assay is PANC-1 (pancreatic cancer) cells. Kind of assay: MTT cell growth inhibition, solid tumor cells. The class given is cell-based, human. To be noted: Homo sapiens; PANC-1, 72 h, MTT; read-out: IC90. An excerpt:
(§1) Hep-2 (laryngeal carcinoma), A549 (human lung cancer), CaES-17 (esophageal cancer cell), PC-3 (prostate cancer), CNE (nasopharyngeal carcinoma cell) and SK-OV-3 (ovarian cancer cell), all of which were purchased from China Center For Type Culture Collection; RKO (human colon adenocarcinoma cell), MGC-803 (human gastric cancer cell), MG-63 (osteosarcoma), and U87-MG (malignant glioma cell), all of which were purchased from Fuxiang Bio-tech Co. Ltd., Shanghai, China; PANC-1 (pancreatic cancer), Becap37 (human breast cancer cell), Hela (human cervical cancer cell) and Hep G2 (human liver cancer cell), all of which were donated by Cancer Research Institute of Zhejiang University, China.
(§2) 6000 well-growing human solid tumor cells were obtained and inoculated into wells of a 96-well cell culture plate. The culture medium was DMEM High Glucose cell culture medium containing 10% fetal bovine serum. The plate was placed in a carbon dioxide cell incubator (5% CO2) at 37° C. and incubated for 24 hours. After added with 7-substituted fangchinoline derivatives of different concentration and mixing uniformly, the plate was placed in a carbon dioxide cell incubator (5% CO2) at 37° C. and incubated for 72 hours. Then the viable cell concentration was determined by the MTT method.
One may read the IC90 as the concentration needed for an effect of 90%. For `COc1ccc2cc1Oc1ccc(cc1)C[C@H]1c3cc(c(OC)cc3CCN1C)Oc1c(OCc3ccc(C(F)(F)F)cc3)c(OC)cc3c1[C@H](C2)N(C)CC3` [BS-FC-216], the IC90 came to 7.25 µg/mL (≈ 9.45 µM).

For the next assay, the system named is PC-3 (prostate cancer) cells. Nature of the assay: MTT cell growth inhibition, solid tumor cells. The class given is cell-based, human. To be noted: Homo sapiens; PC-3, 72 h, MTT; read-out: IC50.
Text: as §1, §2
For orientation: IC50 means the point on the concentration scale where inhibition reaches its midpoint. Turning to `COc1ccc2cc1Oc1ccc(cc1)C[C@H]1c3cc(c(OC)cc3CCN1C)Oc1c(OCc3ccc(C(F)(F)F)cc3)c(OC)cc3c1[C@H](C2)N(C)CC3` [BS-FC-216], the IC50 is 3.95 µg/mL (≈ 5.15 µM).

Still in this assay, the particulars now being: Homo sapiens; PC-3, 72 h, MTT; read-out: IC90.
On to `COc1ccc2cc1Oc1ccc(cc1)C[C@H]1c3cc(c(OC)cc3CCN1C)Oc1c(OCc3ccc(C(F)(F)F)cc3)c(OC)cc3c1[C@H](C2)N(C)CC3` [BS-FC-216], for which the IC90 was found to be 7.45 µg/mL (≈ 9.71 µM).

In another assay the test system is SK-OV-3 (ovarian cancer) cells. Kind of assay: MTT cell growth inhibition, solid tumor cells. The class given is cell-based, human. The note with it: Homo sapiens; SK-OV-3, 72 h, MTT; read-out: IC50.
Text: as §1, §2
As to `COc1ccc2cc1Oc1ccc(cc1)C[C@H]1c3cc(c(OC)cc3CCN1C)Oc1c(OCc3ccc(C(F)(F)F)cc3)c(OC)cc3c1[C@H](C2)N(C)CC3` [BS-FC-216], the IC50 was 6.19 µg/mL (≈ 8.07 µM).

Staying with this assay, now noted: Homo sapiens; SK-OV-3, 72 h, MTT; read-out: IC90.
In the case of `COc1ccc2cc1Oc1ccc(cc1)C[C@H]1c3cc(c(OC)cc3CCN1C)Oc1c(OCc3ccc(C(F)(F)F)cc3)c(OC)cc3c1[C@H](C2)N(C)CC3` [BS-FC-216], the IC90 amounted to 11.2 µg/mL (≈ 14.6 µM).

For the next assay, the system named is Becap-37 (human breast cancer) cells. Kind of assay: MTT cell growth inhibition, solid tumor cells. Type of assay: cell-based. To be noted: Homo sapiens; Becap-37, 72 h, MTT; read-out: IC50.
Text: as §1, §2
`COc1ccc2cc1Oc1ccc(cc1)C[C@H]1c3cc(c(OC)cc3CCN1C)Oc1c(OCc3ccc(C(F)(F)F)cc3)c(OC)cc3c1[C@H](C2)N(C)CC3` [BS-FC-216]: the IC50 worked out at 3.36 µg/mL (≈ 4.38 µM).

The assay is the same for the next values; noted with them: Homo sapiens; Becap-37, 72 h, MTT; read-out: IC90.
Consider `COc1ccc2cc1Oc1ccc(cc1)C[C@H]1c3cc(c(OC)cc3CCN1C)Oc1c(OCc3ccc(C(F)(F)F)cc3)c(OC)cc3c1[C@H](C2)N(C)CC3` [BS-FC-216], for which the IC90 was found to be 5.3 µg/mL (≈ 6.91 µM).

Another assay deals with Hela (human cervical cancer) cells. Kind of assay: MTT cell growth inhibition, solid tumor cells. The note with it: Homo sapiens; Hela, 72 h, MTT; read-out: IC50. The class given is cell-based.
Text: as §1, §2
Turning to `COc1ccc2cc1Oc1ccc(cc1)C[C@H]1c3cc(c(OC)cc3CCN1C)Oc1c(OCc3ccc(C(F)(F)F)cc3)c(OC)cc3c1[C@H](C2)N(C)CC3` [BS-FC-216], the half-inhibitory concentration (IC50) was determined as 1.58 µg/mL (≈ 2.06 µM).

The same assay, now with this note: Homo sapiens; Hela, 72 h, MTT; read-out: IC90.
`COc1ccc2cc1Oc1ccc(cc1)C[C@H]1c3cc(c(OC)cc3CCN1C)Oc1c(OCc3ccc(C(F)(F)F)cc3)c(OC)cc3c1[C@H](C2)N(C)CC3` [BS-FC-216]: the 90% effect concentration (IC90) stood at 3.84 µg/mL (≈ 5.01 µM).

A further assay concerns Hep G2 (human liver cancer) cells. Kind of assay: MTT cell growth inhibition, solid tumor cells. Type of assay: cell-based. The note with it: Homo sapiens, HepG2; Hep G2, 72 h, MTT; read-out: IC50.
Text: as §1, §2
For the compound `COc1ccc2cc1Oc1ccc(cc1)C[C@H]1c3cc(c(OC)cc3CCN1C)Oc1c(OCc3ccc(C(F)(F)F)cc3)c(OC)cc3c1[C@H](C2)N(C)CC3` [BS-FC-216], the IC50 was determined as 2.54 µg/mL (≈ 3.31 µM).

The assay is the same for the next values; noted with them: Homo sapiens, HepG2; Hep G2, 72 h, MTT; read-out: IC90.
As for `COc1ccc2cc1Oc1ccc(cc1)C[C@H]1c3cc(c(OC)cc3CCN1C)Oc1c(OCc3ccc(C(F)(F)F)cc3)c(OC)cc3c1[C@H](C2)N(C)CC3` [BS-FC-216], the IC90 came to 5.91 µg/mL (≈ 7.71 µM).

A further assay relates to MG-63 (osteosarcoma) cells. Nature of the assay: MTT cell growth inhibition, solid tumor cells. The class given is cell-based. The note with it: Homo sapiens; MG-63, 72 h, MTT; read-out: IC50.
Text: as §1, §2
Regarding `COc1ccc2cc1Oc1ccc(cc1)C[C@H]1c3cc(c(OC)cc3CCN1C)Oc1c(OCc3ccc(C(F)(F)F)cc3)c(OC)cc3c1[C@H](C2)N(C)CC3` [BS-FC-216], the IC50 came to 3.4 µg/mL (≈ 4.43 µM).

Staying with this assay, now noted: Homo sapiens; MG-63, 72 h, MTT; read-out: IC90.
For the compound `COc1ccc2cc1Oc1ccc(cc1)C[C@H]1c3cc(c(OC)cc3CCN1C)Oc1c(OCc3ccc(C(F)(F)F)cc3)c(OC)cc3c1[C@H](C2)N(C)CC3` [BS-FC-216], the 90% effect concentration (IC90) amounted to 5.5 µg/mL (≈ 7.17 µM).

Another assay has as its system RKO (human colon adenocarcinoma) cells. Nature of the assay: MTT cell growth inhibition, solid tumor cells. The class given is cell-based. The note with it: Homo sapiens; RKO, 72 h, MTT; read-out: IC50.
Text: as §1, §2
Regarding `COc1ccc2cc1Oc1ccc(cc1)C[C@H]1c3cc(c(OC)cc3CCN1C)Oc1c(OCc3ccc(C(F)(F)F)cc3)c(OC)cc3c1[C@H](C2)N(C)CC3` [BS-FC-216], the 50% inhibitory concentration (IC50) was 1.69 µg/mL (≈ 2.2 µM).

The assay is the same for the next values; noted with them: Homo sapiens; RKO, 72 h, MTT; read-out: IC90.
In the case of `COc1ccc2cc1Oc1ccc(cc1)C[C@H]1c3cc(c(OC)cc3CCN1C)Oc1c(OCc3ccc(C(F)(F)F)cc3)c(OC)cc3c1[C@H](C2)N(C)CC3` [BS-FC-216], the IC90 is 5.79 µg/mL (≈ 7.55 µM).

In the next assay the test system is U87-MG (malignant glioma) cells. Nature of the assay: MTT cell growth inhibition, solid tumor cells. Type of assay: cell-based. To be noted: Homo sapiens, U-87 MG; U87-MG, 72 h, MTT; read-out: IC50.
Text: as §1, §2
Take `COc1ccc2cc1Oc1ccc(cc1)C[C@H]1c3cc(c(OC)cc3CCN1C)Oc1c(OCc3ccc(C(F)(F)F)cc3)c(OC)cc3c1[C@H](C2)N(C)CC3` [BS-FC-216]: the IC50 is 2.11 µg/mL (≈ 2.75 µM).

Staying with this assay, now noted: Homo sapiens, U-87 MG; U87-MG, 72 h, MTT; read-out: IC90.
As for `COc1ccc2cc1Oc1ccc(cc1)C[C@H]1c3cc(c(OC)cc3CCN1C)Oc1c(OCc3ccc(C(F)(F)F)cc3)c(OC)cc3c1[C@H](C2)N(C)CC3` [BS-FC-216], the concentration for an effect of 90% (IC90) was found to be 7.74 µg/mL (≈ 10.1 µM).

In another assay the test system is tumor. Nature of the assay: Antitumor activity compared with fangchinoline, overall statement. Type of assay: cell-based. To be noted: tumor type not specified.
With `COc1ccc2cc1Oc1ccc(cc1)C[C@H]1c3cc(c(OC)cc3CCN1C)Oc1c(OCc3ccc(C(F)(F)F)cc3)c(OC)cc3c1[C@H](C2)N(C)CC3` [BS-FC-216], the “antitumor activity compared with that of fangchinoline” value is “significantly superior”.

Values taken from US9328122B2, “7-substituted Hanfangichin B derivative, and preparation method and use thereof” (HANGZHOU BENSHENG PHARMACEUTICAL CO., LTD., priority 2012, dated 2016).
